Test results: US20230082929A1, “METHODS OF GENERATING AND USING SENESCENT-INDUCED CELLS FOR TREATMENT OF CANCER AND COMPOSITIONS RELATING THERETO” (The Wistar Institute of Anatomy and Biology, priority 2020, published 2023)

Assays:
TOP1cc [1] = target: T1, TOP1cc (Homo sapiens, UniProt P11387); assay: TOP1cc induction in CPT-treated IMR90 cells (chromatin fragment extraction, slot blot); assay type: cell-based; parameters: endogenous in cells; host or cells: IMR90 human fibroblasts (senescent or proliferating, with or without shHMGB2); conditions: IMR90 cells treated with two doses of CPT (5 μM or 50 μM, 30 minutes)
T1 sequence (P11387 1-765): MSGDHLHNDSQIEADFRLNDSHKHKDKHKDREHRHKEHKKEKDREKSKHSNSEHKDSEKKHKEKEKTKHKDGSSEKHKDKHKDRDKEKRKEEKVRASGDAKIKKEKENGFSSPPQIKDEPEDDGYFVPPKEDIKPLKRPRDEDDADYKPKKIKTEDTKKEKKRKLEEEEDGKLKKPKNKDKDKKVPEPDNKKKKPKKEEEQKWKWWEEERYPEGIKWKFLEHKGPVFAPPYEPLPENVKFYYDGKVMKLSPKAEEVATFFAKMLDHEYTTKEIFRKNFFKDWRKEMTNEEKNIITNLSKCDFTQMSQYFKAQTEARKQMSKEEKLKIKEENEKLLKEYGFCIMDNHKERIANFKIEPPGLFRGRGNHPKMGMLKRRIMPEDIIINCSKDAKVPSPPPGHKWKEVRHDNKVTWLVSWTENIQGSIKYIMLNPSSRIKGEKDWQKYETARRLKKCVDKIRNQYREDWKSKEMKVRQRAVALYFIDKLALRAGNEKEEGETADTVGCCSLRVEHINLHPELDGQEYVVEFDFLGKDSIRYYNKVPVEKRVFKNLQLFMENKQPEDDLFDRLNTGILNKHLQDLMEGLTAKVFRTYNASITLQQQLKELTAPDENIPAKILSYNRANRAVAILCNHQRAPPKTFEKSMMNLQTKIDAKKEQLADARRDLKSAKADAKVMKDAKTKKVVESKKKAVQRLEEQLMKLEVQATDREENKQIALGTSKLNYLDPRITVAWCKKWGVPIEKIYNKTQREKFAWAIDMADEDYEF
Description: For chromatin fragments extraction, proliferating IMR90 cells were treated with 5 μM or 50 μM Camptothecin for 30 minutes to induce low or high levels of TOP1cc, respectively. Cells then were incubated with hypotonic buffer (10 mM Tris, pH 7.4, 30 mM NaCl, 3 mM MgCl2, 0.1% NP40), supplemented with protease inhibitor cocktail, on ice for 10 mins (Dou et al., 2017). The cells were then centrifuged at 300×g for 3 mins at 4° C. The supernatant was carefully removed, and the resulting pellets were incubated with benzonase buffer (50 mM Tris pH 7.5, 300 mM NaCl, 0.5% NP40, 2.5 mM MgCl2) with protease inhibitor cocktail, supplemented with 10 U of benzonase (Sigma Cat. No: E1014), on ice, for 30 min. The product was centrifuged again at 300×g for 3 mins at 4° C., and benzonase was inactivated by addition of 15 mM EDTA. The resulting supernatant contains chromatin fragments and soluble nuclear proteins. For the negative controls, buffer without benzonase was used and the resulting supernatant only contains soluble nuclear proteins without chromatin fragments. The product was then diluted 5 times with PBS. Slot blot were performed to confirm the TOP1cc level.
Human Topoisomerase 1 ICE Assay Kit (TopoGEN. Cat. No:TG1020-1) was used to isolate protein-DNA samples which contain TOP1-DNA covalent complex (TOP Ice) for slot blot analysis. […] Quantification was performed using NIH Image J software.

STING = STING dimerization by immunoblot in IMR90 cells; assay type: cell-based, human; conditions: senescent IMR90 cells with HMGB2 knockdown
Description: Cells were lysed in 1× sample buffer (2% SDS, 10% glycerol, 0.01% bromophenol blue, 62.5 mM Tris, pH 6.8, and 0.1 M DTT) and heated to 95° C. for 10 min. Protein concentrations were determined using the protein assay dye (Bio-Rad. Cat. No: #5000006) and Nanodrop. An equal amount of total protein was resolved using SDS-PAGE gels and transferred to PVDF membranes at 110 V for 2 hours at 4° C. Membranes were blocked with 5% nonfat milk in TBS containing 0.1% Tween 20 (TBS-T) for 1 hour at room temperature. Membranes were incubated overnight at 4° C. in the primary antibodies in 4% BSA/TBS+0.025% sodium azide. Membranes were washed four times in TBS-T for 5 min at room temperature, after which they were incubated with HRP-conjugated secondary antibodies (Cell Signaling Technology. Cat. No: 7076S, 7074S) for 1 hour at room temperature. After washing four times in TBS-T for 5 min at room temperature, proteins were visualized on film after incubation with SuperSignal West Pico PLUS Chemiluminescent Substrate (Thermo Fisher Scientific. Cat. No: 34580).

cGAS = cGAS localization into CCF by immunofluorescence; assay type: cell-based, human; conditions: HMGB2 knockout cells
Description: Cells were fixed with 4% paraformaldehyde (PFA) for 15 mins at room temperature followed by permeabilization with 0.2% Triton X-100 in PBS for 5 min. For DNase I digestion, after fixation and permeabilization, cells were treated with 500 units/mL RNase-Free DNase I (Qiagen, Cat. No: 79254) for one hour at 37° C. After blocking with 1% BSA in PBS, cells were incubated with primary antibody overnight at 4° C. and Alexa-Fluor conjugated secondary antibody (Life Technologies). Fluorescent images were captured using Leica TCS SP5 II scanning confocal microscope.

TOP1cc [2] = target: T1, TOP1cc; assay: Slot blot analysis of TOP1cc levels in purified CCF of senescent cells; assay type: cell-based; parameters: endogenous in cells; host or cells: IMR90 human fibroblasts (senescent or proliferating, with or without shHMGB2); OVCAR3 (with or without HMGB2 knockout); conditions: CCF isolated from HMGB2 knockdown or knockout senescent cells (IMR90, OVCAR3)
Description: A CCF purification protocol was developed by modifying previous protocols (Shimizu et al., 1996; Ly et al., 2017). Briefly, 500 million senescent cells were collected, resuspended, and incubated in DMEM containing 10 μg/mL cytochalasin B for 30 minutes at 37° C. After wash once with ice-cold PBS, the cell pellet was gently dounce homogenized in ice-cold pre-chilled lysis buffer (10 mM Tris-HCl, 2 mM magnesium acetate, 3 mM CaCl2), 0.32 M sucrose, 0.1 mM EDTA, 1 mM DTT, 0.1% NP-40, 0.15 mM spermine, 0.75 mM spermidine, 10 μg/ml cytochalasin B, pH 8.5, 4° C.) with ten slow strokes of a loose-fitting pestle. Release of nuclei was confirmed by DAPI-staining and microscopy. The homogenate was fixed with 1% formaldehyde for 10 minutes, and mixed well with an equal volume of 1.6M sucrose buffer (10 mM Tris-HCl, 5 mM magnesium acetate, 0.1 mM EDTA, 1 mM DTT, 0.3% BSA, 0.15 mM spermine, 0.75 mM spermidine, pH 8.0, 4° C.). A 10 mL portion of homogenate was layered on the top of sucrose buffer gradient (20 mL and 15 mL containing 1.8M and 1.6M of sucrose, respectively) in a 50 mL tissue culture tube. The tubes were centrifuged at 1200×g for 20 minutes at 4° C. After centrifugation, the upper 3 mL of the gradient was discarded, and the next 15 mL containing CCFs was collected. […] DNA concentration was measured using Nanodrop and 5 μg DNA was used for slot blot analysis.

In the case of `CC[C@@]1(O)C(=O)OCc2c1cc1n(c2=O)Cc2cc3ccccc3nc2-1` [CPT, Camptothecin], the TOP1cc induction (TOP1cc [1]) is reported as “induced TOP1cc in a dose-dependent manner”, the STING dimerization (STING) is reported as “rescued the suppression of STING dimerization” and the “localization of cGAS and TOP1cc into CCF” value (cGAS) is reported as “rescue of the localization of cGAS and TOP1cc into CCF”. For the same molecule, the “TOP1cc levels in CCF” value (TOP1cc [2]) was “restored the TOP1cc levels” and the “TOP1cc levels in CCF” value (TOP1cc [2]; listed as Camptothecin) was “Rescue of the decrease in TOP1cc levels”.
